Read-outs that look alike come from different tables or passages of the source.
Experiments:
[1] = target: E. coli Methionyl-tRNA synthetase (Escherichia coli, UniProt P00959); experiment: Enzymatic aminoacylation tRNA charging assay; type: biochemical
Method: The assay system is as described by Hartman M et al, 2006 Enzymatic aminoacylation of tRNA with unnatural amino acids. PNAS. […] Each assay contains 40 mM Hepes (pH 7.4), 17 mM MgCl2, 45 mM KCl, 3.4 mM 2-mercaptoethanol, 6 mM ATP, 6% glycerol, 350 μM E. coli tRNA (Roche), 0.09 mg/mL BSA, 910 nM Methionyl-tRNA synthetase (MetRS) and amino acids in 100-1,000 μM range. […] Samples are transferred to ice bath to stop the reactions and then small aliquot (2 μL) samples are precipitated using 500 μL of 5% cold TCA onto Whatmann filter papers and vacuumed and then dried under a heat lamp. Radioactivity of each sample is measured as counts per minute (CPM), as compared to controls (without the analog). Results for the S enantiomer of I-A ((S)-2-amino-4-(methylthio)butane-1-sulfonic acid hydrochloride) are shown below in Table 11.

[2] = tested on: CV-1 (African Green Monkey Kidney Cells) cells; conditions: 60 min, pH 7
Method: Preliminary studies of cytotoxicity were performed in a mammalian cell viability assay.
CV-1 cells were propagated in DMEM plus 8% FBS according to supplier's recommendations. CV-1 cells were seeded at 1.5×10^4 cells per well in 96-well plates and incubated overnight at 37° C. On the day of testing, growth medium was aspirated from each well, and 20 μl fresh medium was added per well. Test articles were diluted from 50 mM to 0.05 mM by 2-fold serial dilution using PBS at pH 7.0 for each test article. After which 80 μl of each dilution was added to each well for a total volume of 100 μl per well. Following 60 minutes exposure at 37° C., test articles were aspirated and replaced with fresh 100 μl tissue culture media and incubated for 24 hours at 37° C. Next day cell culture media was removed and cell viability was determined by addition of WST-8 (Dojindo, Japan) reagent and the absorption at 450 nm read spectrophotometrically. Orange-red formazan, which is produced by live cells, is a direct measure of cell viability in this assay.
(§1) Results are expressed as percentage of cells surviving the treatment as compared to PBS.

L929 cells = conditions: mouse, 60 min
Method: Cytotoxicity is assessed by a colorimetric assay system (Sagripanti J-L, Bonifacino A. Cytotoxicity of Liquid Disinfectants. Surgical Infections, 2000; 1(1): 3-14, the content of which is hereby incorporated by reference, particularly with respect to the experimental methods described therein), using 3′-(phenylamino-carbonyl)-3,4-tetrazo-lium-bis(4-methoxy-6-nitro) benzene sulfonic acid hydrate (XTT), ProCheck™ cell viability assay (Evaluation of a soluble tetrazolium/formazan assay for cell growth and drug sensitivity in culture using human and other tumor cell lines described by Scudiero D A, Shoemaker R A H, Paul K D, Monks A, Tierney S, Nofziger T H, Currens M J, Seniff D, Boyd M R. Cancer Res. 1988 Sep. 1; 48(17):4827-33, the content of which is hereby incorporated by reference, particularly with respect to the experimental methods described therein). Similar approaches for determining the cell viability are used by other investigators. Three cell types are used: […] (L929), primary human skin fibroblast and primary human keratinocyte cells cultured in Dulbecco Modified Eagle's Medium and Keratinocyte defined medium with corresponding growth factors plus antibiotics. Cells are trypsinized and counted under the microscope and seeded at 1000-to-2000 cells per well of a flat-bottom 96-well plate. Cells are allowed to grow overnight at 37° C. Tissue culture media is removed the following day and cells are rinsed with fresh media 1× and then left in 50 μL of tissue culture media. Test articles are prepared as 2-fold dilutions and 200 μL is added into each set of 4-wells (total volume per well is 250 μL). Cells are exposed to test articles for 60 min at room temperature. Immediately after the exposed time, test article from each well is removed and cells are fed with 250 μL of fresh media. Plates are incubated at 37° C. for 18-20 hr. The following day media is removed again and replaced with 100 μL/well of fresh media containing 10/100 μL XTT-reagent. Cells are incubated under growth conditions (5% CO2 at 37° C. humidified incubator), protected from light, until color development is achieved. Absorbance is read at 450 nm with reference wavelength at 750 nm using Molecular Device ThermoMax Plate reader, blanking the plate on the medium-only assay blank wells. Untreated cells receiving XTT reagents-only serve as positive cell proliferation control.
as §1

E. coli (DH5-α) = experiment: Growth inhibition of E. coli by methionine analogs, 96-well plate, OD 550 nm over time; type: cell-based; conditions: E. coli, 12.5 mM, OD 550 nm
Description: Comparative Minimum Bactericidal Concentration (MBC) results provide estimates of the susceptibility of various test articles against test organisms. A modification of the […] (NCCL) Standardized Protocol “Methods for dilution antimicrobial susceptibility tests for bacteria that grow aerobically” was used in these studies. Sterile Phosphate Buffer Saline (PBS) at pH 7.0 (vehicle) was used as the diluent. Use of such diluent allows for the determination of the intrinsic activity of our test articles in the absence of any interfering molecules. Specifically, each test article was diluted using 2-fold serial dilution in 96-well plate to give a range of concentrations from approximately 50 mM to 0.05 mM in a final volume of 0.1 mL. Each dilution was inoculated with 5×10^5 CFU/mL test bacteria. The initial optical density as absorbance of each well was read at OD 550 nm using ThermoMax plate reader. […] At various time intervals post-treatment, OD reading at 550 nm was recorded at various time intervals. FIG. 1A and Table 1 show time dependent growth inhibition capability of analogs on E. coli at 12.5 mM. For FIGS. 1A and 1B, the 96-well plate format was used to culture E. coli (DH5-α) cells in M9 minimal media supplemented with glucose (M9) or same media supplemented with a range of concentrations of various analogs. Experiments were carried out in duplicate.

E. coli Methionyl-tRNA synthetase, sequence (P00959 whole entry): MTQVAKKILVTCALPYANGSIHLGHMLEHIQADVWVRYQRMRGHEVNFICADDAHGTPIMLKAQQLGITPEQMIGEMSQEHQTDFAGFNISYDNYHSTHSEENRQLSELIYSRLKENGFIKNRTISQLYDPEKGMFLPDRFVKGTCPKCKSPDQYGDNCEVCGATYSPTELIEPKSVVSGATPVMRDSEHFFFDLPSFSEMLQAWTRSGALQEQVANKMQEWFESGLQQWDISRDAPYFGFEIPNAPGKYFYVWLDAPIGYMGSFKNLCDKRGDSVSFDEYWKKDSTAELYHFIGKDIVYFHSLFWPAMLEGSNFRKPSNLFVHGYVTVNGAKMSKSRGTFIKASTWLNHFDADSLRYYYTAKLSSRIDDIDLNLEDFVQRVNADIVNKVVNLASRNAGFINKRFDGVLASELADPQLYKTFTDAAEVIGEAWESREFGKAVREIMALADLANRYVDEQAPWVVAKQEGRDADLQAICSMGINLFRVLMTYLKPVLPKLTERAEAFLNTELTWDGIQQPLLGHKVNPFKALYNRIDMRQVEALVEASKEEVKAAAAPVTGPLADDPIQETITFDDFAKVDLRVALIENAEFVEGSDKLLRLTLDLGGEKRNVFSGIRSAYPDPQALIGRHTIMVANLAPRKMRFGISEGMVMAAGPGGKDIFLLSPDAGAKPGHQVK

CSCC[C@H](N)CS(=O)(=O)O.Cl [I-A, (S)-2-amino-4-(methylthio)butane-1-sulfonic acid hydrochloride]
Radioactivity, Methionyl-tRNA synthetase tRNA charging ([1]; Experiment #1, I-A 0.04 mM, 1 Minute): 2,476 Counts Per Minute
Radioactivity, Methionyl-tRNA synthetase tRNA charging ([1]; Experiment #1, I-A 0.04 mM, 10 Minutes): 3,466 Counts Per Minute
Radioactivity, Methionyl-tRNA synthetase tRNA charging ([1]; Experiment #1, I-A 0.20 mM, 1 Minute): 2,333 Counts Per Minute
Radioactivity, Methionyl-tRNA synthetase tRNA charging ([1]; Experiment #1, I-A 0.20 mM, 10 Minutes): 3,147 Counts Per Minute
Radioactivity, Methionyl-tRNA synthetase tRNA charging ([1]; Experiment #1, I-A 1.00 mM, 1 Minute): 2,372 Counts Per Minute
Radioactivity, Methionyl-tRNA synthetase tRNA charging ([1]; Experiment #1, I-A 1.00 mM, 10 Minutes): 3,218 Counts Per Minute
Radioactivity, Methionyl-tRNA synthetase tRNA charging ([1]; Experiment #1, I-A 5.00 mM, 1 Minute): 2,007 Counts Per Minute
Radioactivity, Methionyl-tRNA synthetase tRNA charging ([1]; Experiment #1, I-A 5.00 mM, 10 Minutes): 2,891 Counts Per Minute
Radioactivity, Methionyl-tRNA synthetase tRNA charging ([1]; Experiment #2, I-A 0.25 mM, 10 Minutes): 1,701 Counts Per Minute
Radioactivity, Methionyl-tRNA synthetase tRNA charging ([1]; Experiment #2, I-A 1.25 mM, 10 Minutes): 1,907 Counts Per Minute
Radioactivity, Methionyl-tRNA synthetase tRNA charging ([1]; Experiment #2, I-A 5.00 mM, 10 Minutes): 1,575 Counts Per Minute
Radioactivity, Methionyl-tRNA synthetase tRNA charging ([1]; Experiment #2, I-A 12.5 mM, 10 Minutes): 1,672 Counts Per Minute

CSCC[C@H](N)C(=O)O [Methionine]
Percentage of Surviving CV-1 cells relative to PBS ([2]; 0.1 mM): 98%
Percentage of Surviving CV-1 cells relative to PBS ([2]; 0.2 mM): 96%
Percentage of Surviving CV-1 cells relative to PBS ([2]; 0.39 mM): 95%
Percentage of Surviving CV-1 cells relative to PBS ([2]; 0.78 mM): 96%
Percentage of Surviving CV-1 cells relative to PBS ([2]; 1.56 mM): 99%
Percentage of Surviving CV-1 cells relative to PBS ([2]; 3.13 mM): 100%
Percentage of Surviving CV-1 cells relative to PBS ([2]; 6.25 mM): 100%
Percentage of Surviving CV-1 cells relative to PBS ([2]; 12.5 mM): 99%
Percentage of Surviving CV-1 cells relative to PBS ([2]; 25 mM): 99%
Percentage of Surviving CV-1 cells relative to PBS ([2]; 50 mM): 66%
Percentage of Surviving L929 cells relative to control (L929 cells; 0.1 mM): 104%
Percentage of Surviving L929 cells relative to control (L929 cells; 0.2 mM): 101%
Percentage of Surviving L929 cells relative to control (L929 cells; 0.39 mM): 100%
Percentage of Surviving L929 cells relative to control (L929 cells; 0.78 mM): 95%
Percentage of Surviving L929 cells relative to control (L929 cells; 1.56 mM): 87%
Percentage of Surviving L929 cells relative to control (L929 cells; 3.13 mM): 86%
Percentage of Surviving L929 cells relative to control (L929 cells; 6.25 mM): 84%
Percentage of Surviving L929 cells relative to control (L929 cells; 12.5 mM): 85%
Percentage of Surviving L929 cells relative to control (L929 cells; 25 mM): 85%
Percentage of Surviving L929 cells relative to control (L929 cells; 50 mM): 81%
Absorbance (E. coli (DH5-α); well 12, time 0 hrs): 0.085
Absorbance (E. coli (DH5-α); well 12, time 1 hrs): 0.123
Absorbance (E. coli (DH5-α); well 12, time 2 hrs): 0.164
Absorbance (E. coli (DH5-α); well 12, time 3 hrs): 0.168
Absorbance (E. coli (DH5-α); well 12, time 3.75 hrs): 0.151
Absorbance (E. coli (DH5-α); well 12, time 5 hrs): 0.191
Absorbance (E. coli (DH5-α); well 12, time 6.5 hrs): 0.202
Absorbance (E. coli (DH5-α); well 12, time 7.25 hrs): 0.202
Absorbance (E. coli (DH5-α); well 12, time 23 hrs): 0.427

CSCC[C@H](N)C(=O)NO.Cl [I-AA, (S)-2-amino-N-hydroxy-4-(methylthio)butanamide hydrochloride]
Percentage of Surviving CV-1 cells relative to PBS ([2]; 0.1 mM): 97%
Percentage of Surviving CV-1 cells relative to PBS ([2]; 0.2 mM): 95%
Percentage of Surviving CV-1 cells relative to PBS ([2]; 0.39 mM): 96%
Percentage of Surviving CV-1 cells relative to PBS ([2]; 0.78 mM): 96%
Percentage of Surviving CV-1 cells relative to PBS ([2]; 1.56 mM): 100%
Percentage of Surviving CV-1 cells relative to PBS ([2]; 3.13 mM): 100%
Percentage of Surviving CV-1 cells relative to PBS ([2]; 6.25 mM): 99%
Percentage of Surviving CV-1 cells relative to PBS ([2]; 12.5 mM): 101%
Percentage of Surviving CV-1 cells relative to PBS ([2]; 25 mM): 99%
Percentage of Surviving CV-1 cells relative to PBS ([2]; 50 mM): 72%
Percentage of Surviving L929 cells relative to control (L929 cells; 0.1 mM): 100%
Percentage of Surviving L929 cells relative to control (L929 cells; 0.2 mM): 94%
Percentage of Surviving L929 cells relative to control (L929 cells; 0.39 mM): 89%
Percentage of Surviving L929 cells relative to control (L929 cells; 0.78 mM): 87%
Percentage of Surviving L929 cells relative to control (L929 cells; 1.56 mM): 87%
Percentage of Surviving L929 cells relative to control (L929 cells; 3.13 mM): 87%
Percentage of Surviving L929 cells relative to control (L929 cells; 6.25 mM): 85%
Percentage of Surviving L929 cells relative to control (L929 cells; 12.5 mM): 86%
Percentage of Surviving L929 cells relative to control (L929 cells; 25 mM): 85%
Percentage of Surviving L929 cells relative to control (L929 cells; 50 mM): 82%
Absorbance (E. coli (DH5-α); well 12, time 0 hrs): 0.084
Absorbance (E. coli (DH5-α); well 12, time 1 hrs): 0.113
Absorbance (E. coli (DH5-α); well 12, time 2 hrs): 0.130
Absorbance (E. coli (DH5-α); well 12, time 3 hrs): 0.133
Absorbance (E. coli (DH5-α); well 12, time 3.75 hrs): 0.109
Absorbance (E. coli (DH5-α); well 12, time 5 hrs): 0.118
Absorbance (E. coli (DH5-α); well 12, time 6.5 hrs): 0.110
Absorbance (E. coli (DH5-α); well 12, time 7.25 hrs): 0.100
Absorbance (E. coli (DH5-α); well 12, time 23 hrs): 0.130
